Data from patent publication US8790654B2, “Glycosylceramide adjuvant for saccharide antigens” (Novartis AG, priority 2004, dated 2014).
Entries after “also recorded” stand apart in the source; their conditions may differ.

What was measured:
Type in all cases: in vivo
[1] = tested on: S. pneumoniae-specific B cells; experiment: Number of S. pneumoniae-specific B cells in spleens by Elispot; details: mice primed with 0.1 or 1.0 μg α-GalCer and boosted with 11.5 μg Streptopur 12 weeks later, compared with PBS prime and Streptopur boost; Elispot at 18-22 weeks
[2] = tested on: Hib; experiment: Hib-specific Ig titre in mice immunised with Hib-HSA conjugate mixed with PBS, α-GalCer or MF59; details: 15 μg Hib-HSA conjugate mixed with α-GalCer, compared with Hib-HSA conjugate and PBS; three immunisations; 1wp2 and 1wp3
Procedure: FIG. 11: Antibody response is enhanced in mice immunised with α-GalCer and Hib-HSA conjugate. […] Each group of mice was immunised three times. The Hib-specific titre was measured 1 week post the second immunisation (1wp2) and 1 week post the third immunisation (1wp3).

[3] = tested on: S. pneumoniae polysaccharides; experiment: S. pneumoniae-specific antibody titres by ELISA in mice immunised with Streptopur with or without α-GalCer
[4] = tested on: MenC polysaccharide; experiment: MenC-specific Ig titre in mice immunised with MenC, MenC+CRM or MenC-CRM conjugate with or without α-GalCer; details: 30 μg MenC-CRM conjugate and α-GalCer, compared with MenC-CRM conjugate and PBS; three immunisations
Procedure: C) Immunisation schedule for mice with different polysaccharides, plain, conjugated or admixed with protein carriers, with and without α-GalCer. Ten groups of wild-type C57BL/6 mice were primed on day 0 with: 1) PBS, 2) 0.1 μg with α-GalCer, 3) 10 μg MenC polysaccharide, 4) 20 μg CRM protein carrier, 5) 30 μg of a MenC-CRM conjugate, 6) 10 μg MenC polysaccharide admixed with CRM protein carrier, or the compositions in 3)-6) and α-GalCer (groups 7-10). Mice were boosted two and four weeks after they were primed with the same composition with which they were primed. Mice were bled 2, 4 and 6 weeks after initial priming (2wp1, 2wp2 and 2wp3) and the levels of antibodies against both the MenC polysaccharide and the CRM carrier were measured.
FIG. 5: α-GalCer enhances the specific antibody response against both the MenC polysaccharide and the CRM protein carrier in a MenC-CRM conjugate. Wild-type mice were primed with 10 μg MenC polysaccharide, 20 μg CRM protein carrier, 10 μg MenC polysaccharide admixed with CRM protein carrier (MenC+CRM), or 30 μg of a MenC-CRM conjugate, or the same compositions with α-GalCer. […]
FIG. 7: Antibody response is enhanced in mice immunised with α-GalCer and MenC-CRM conjugate. […] The MenC-specific titre was measured one week post the second immunisation (1wp2) and one week post third immunisation (1wp3).

[5] = tested on: MenA polysaccharide; experiment: MenA-specific antibody titres in mice immunised with MenA polysaccharide or MenA-CRM conjugate with or without α-GalCer
Procedure: FIG. 6: α-GalCer enhances the immune response to a MenA-CRM conjugate. Mice were immunised with 10 μg MenA polysaccharide or MenA-CRM conjugate with or without α-GalCer. Antibodies titres against the MenA polysaccharide were measured 4, 8 and 12 days post priming. α-GalCer enhanced the immune response to the MenA polysaccharide.

**Q.** `CCCCCCCCCCCCCCCCCCCCCCCCCC(=O)N[C@@H](CO[C@H]1O[C@H](CO)[C@H](O)[C@H](O)[C@H]1O)[C@H](O)[C@H](O)CCCCCCCCCCCCCC` [α-GalCer, α-galactosylceramide] was tested. Which “Number of S. pneumoniae-specific B cells per 10^6 splenocytes” value [1] did it give?
**A.** lower numbers

**Q.** What about the “Hib-specific Ig titres” value [2] of the same compound?
**A.** enhanced; also recorded: considerably higher

**Q.** What about the “S. pneumoniae specific IgM antibodies (geomean) by age of mice” value ([3]; 8 days after priming mice of different ages with 3.5 μg Streptopur and 0.1 μg α-GalCer, compared with Streptopur alone) of the same compound?
**A.** suppresses; also recorded: suppression

**Q.** What about the “S. pneumoniae-specific antibody titres in NKT-deficient mice” value ([3]; JA18−/−, CD1d−/− and CD1d−/+ mice primed with 3.5 μg Streptopur and 0.1 μg α-GalCer, compared with Streptopur alone, 4, 8, 12 days after priming) of the same compound?
**A.** no significant difference

**Q.** What about the “S. pneumoniae-specific antibody titers after boost” value ([3]; mice primed with Streptopur and 0.1 μg α-GalCer and boosted with Streptopur, compared with primed and boosted with Streptopur alone, 8 days after boosting) of the same compound?
**A.** lower

**Q.** And the “S. pneumoniae-specific antibody titres (IgM, geomean)” value ([3]; wild-type C57BL/6 mice primed i.m. with Streptopur and 0.1 μg α-GalCer, compared with Streptopur alone, 4, 8, 12 days after priming)?
**A.** lower; also recorded: reduced

**Q.** And the “MenC-specific Ig titres” value [4]?
**A.** enhanced; also recorded: significant increase

**Q.** What about the “MenA-specific Ig titres” value ([5]; MenA-CRM conjugate and α-GalCer, compared with conjugate without α-GalCer, 4, 8, 12 days post priming) of the same compound?
**A.** enhances; also recorded: increase

**Q.** And the “Inhibitory action on the response to unconjugated MenA saccharides” value ([5]; unconjugated MenA polysaccharide with α-GalCer)?
**A.** not observed
